In patent US6355799B1, “Substituted benzene compounds, process for their preparation, and herbicidal and defoliant compositions containing them” (ISK Americas Incorporated, priority 1997, dated 2002):

How the values were obtained:
Format in all cases: in vivo
[1] = tested on: common ragweed (Ambrosia artemisizfolia L., AMBEL); test: Post-emerge test, greenhouse herbicide activity screening; details: rating scale 0-100 (0 no damage, 100 complete death), 14 days after application
Method in brief: (§1)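 Applied at 15–1000 g ai/ha from acetone in 187 l/ha spray volume. Post-emergence applications included 0.25% v/v non-ionic surfactant and reached plants sown 8–21 days before. Pre-emergence applications were incorporated by surface watering. Efficacy or crop damage was rated on a 0–100 scale after 14 days.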

[2] = tested on: barnyardgrass (Echinochloa crus-galli, ECHCG); test: as above; details: rating scale 0-100 (0 no damage, 100 complete death), 14 days after application
Method in brief: as §1

[3] = tested on: redroot pigweed (Amaranthus retroflexus, AMARE); test: as above; details: rating scale 0-100 (0 no damage, 100 complete death), 14 days after application
Method in brief: as §1

[4] = tested on: green foxtail (Setaria viridis, SETVI); test: as above; details: rating scale 0-100 (0 no damage, 100 complete death), 14 days after application
Method in brief: as §1

[5] = tested on: velvetleaf (Abutilon theophrasti, ABUTH); test: as above; details: rating scale 0-100 (0 no damage, 100 complete death), 14 days after application
Method in brief: as §1

[6] = tested on: large crabgrass (Digitaria sanguinalis, DIGSA); test: as above; details: rating scale 0-100 (0 no damage, 100 complete death), 14 days after application
Method in brief: as §1

[7] = tested on: ivyleaf morningglory (Ipomoea hederacea, IPOHE); test: as above; details: rating scale 0-100 (0 no damage, 100 complete death), 14 days after application
Method in brief: as §1

[8] = tested on: lambsquarters (Chenopodium album, CHEAL); test: as above; details: rating scale 0-100 (0 no damage, 100 complete death), 14 days after application
Method in brief: as §1

[9] = tested on: johnsongrass (Sorghum halepense, SORHA); test: as above; details: rating scale 0-100 (0 no damage, 100 complete death), 14 days after application
Method in brief: as §1

[10] = tested on: sicklepod (Cassia obtusifolia, CASOB); test: as above; details: rating scale 0-100 (0 no damage, 100 complete death), 14 days after application
Method in brief: as §1

[11] = tested on: common ragweed (Ambrosia artemisizfolia L., AMBEL); test: Pre-emerge test, greenhouse herbicide activity screening; details: rating scale 0-100, 14 days after application
Method in brief: (§2)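 Sandy loam pots; pre-emerge: sown 1 d pre-spray, surface-watered after, then bottom-watered. Post-emerge: sown 8–21 d before, 2–3 leaf stage, + 0.25% v/v NIS, bottom-watered. Acetone, 187 l/ha track spray, 15–1000 g ai/ha. 0–100 injury score, day 14.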

[12] = tested on: barnyardgrass (Echinochloa crus-galli, ECHCG); test: as above; details: rating scale 0-100, 14 days after application
Method in brief: as §2

[13] = tested on: green foxtail (Setaria viridis, SETVI); test: as above; details: rating scale 0-100, 14 days after application
Method in brief: as §2

[14] = tested on: velvetleaf (Abutilon theophrasti, ABUTH); test: as above; details: rating scale 0-100, 14 days after application
Method in brief: as §2

[15] = tested on: large crabgrass (Digitaria sanguinalis, DIGSA); test: as above; details: rating scale 0-100, 14 days after application
Method in brief: as §2

[16] = tested on: ivyleaf morningglory (Ipomoea hederacea, IPOHE); test: as above; details: rating scale 0-100, 14 days after application
Method in brief: as §2

[17] = tested on: lambsquarters (Chenopodium album, CHEAL); test: as above; details: rating scale 0-100, 14 days after application
Method in brief: as §2

[18] = tested on: johnsongrass (Sorghum halepense, SORHA); test: as above; details: rating scale 0-100, 14 days after application
Method in brief: as §2

[19] = tested on: sicklepod (Cassia obtusifolia, CASOB); test: as above; details: rating scale 0-100, 14 days after application
Method in brief: as §2

[20] = tested on: field corn (Zea mays L., var. Dekalb 535, CORN); test: Pre-emerge test, crop safety; details: rating scale 0-100, 14 days after application
Method in brief: (§3)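 Visual ratings on a 0-100 scale (0 no damage, 100 all plants dead) were taken at 14 days after treatment. Rates of 15-1000 g ai/ha in acetone, 187 l/ha, were sprayed onto soil one day after planting (pre-emerge) or onto 2-3 leaf plants with 0.25% v/v surfactant (post-emerge).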

[21] = tested on: upland rice (Oryza sp., var. Tebonnet, RICE); test: Pre-emerge test, crop safety; details: rating scale 0-100, 14 days after application
Method in brief: as §3

[22] = tested on: field corn (Zea mays L., var. Dekalb 535, CORN); test: Post-emerge test, crop safety; details: rating scale 0-100 (0 no damage, 100 complete death), 14 days after application
Method in brief: as §2

[23] = tested on: upland rice (Oryza sp., var. Tebonnet, RICE); test: Post-emerge test, crop safety; details: rating scale 0-100 (0 no damage, 100 complete death), 14 days after application
Method in brief: as §2

[24] = tested on: redroot pigweed (Amaranthus retroflexus, AMARE); test: Pre-emerge test, greenhouse herbicide activity screening; details: rating scale 0-100, 14 days after application
Method in brief: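 Compounds in acetone were track-sprayed at 15-1000 g ai/ha (187 l/ha) on sandy loam pots: pre-emerge one day after seeding, post-emerge at 2-3 leaf stage with 0.25% v/v non-ionic surfactant. Phytotoxicity was rated 14 days later on a 0 (no damage) to 100 (complete death) scale.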

Which results are given for CCCOC(=O)C(Cl)Cc1c(OC)c(Cl)cc(F)c1-n1c(=O)cc(C(F)(F)F)n(C)c1=O (single isomer, unassigned) [14-7]?
Post-emerge Herbicidal Activity, phytotoxicity rating AMBEL ([1]; Rate 63 g ai/ha): 50; Post-emerge Herbicidal Activity, phytotoxicity rating AMBEL ([1]; Rate 250 g ai/ha): 90; Post-emerge Herbicidal Activity, phytotoxicity rating ECHCG ([2]; Rate 63 g ai/ha): 100; Post-emerge Herbicidal Activity, phytotoxicity rating ECHCG ([2]; Rate 250 g ai/ha): 100; Post-emerge Herbicidal Activity, phytotoxicity rating AMARE ([3]; Rate 63 g ai/ha): 95; Post-emerge Herbicidal Activity, phytotoxicity rating AMARE ([3]; Rate 250 g ai/ha): 100; Post-emerge Herbicidal Activity, phytotoxicity rating SETVI ([4]; Rate 63 g ai/ha): 60; Post-emerge Herbicidal Activity, phytotoxicity rating SETVI ([4]; Rate 250 g ai/ha): 85; Post-emerge Herbicidal Activity, phytotoxicity rating ABUTH ([5]; Rate 63 g ai/ha): 50; Post-emerge Herbicidal Activity, phytotoxicity rating ABUTH ([5]; Rate 250 g ai/ha): 100; Post-emerge Herbicidal Activity, phytotoxicity rating DIGSA ([6]; Rate 63 g ai/ha): 80; Post-emerge Herbicidal Activity, phytotoxicity rating DIGSA ([6]; Rate 250 g ai/ha): 100; Post-emerge Herbicidal Activity, phytotoxicity rating IPOHE ([7]; Rate 63 g ai/ha): 20; Post-emerge Herbicidal Activity, phytotoxicity rating IPOHE ([7]; Rate 250 g ai/ha): 60; Post-emerge Herbicidal Activity, phytotoxicity rating CHEAL ([8]; Rate 63 g ai/ha): 90; Post-emerge Herbicidal Activity, phytotoxicity rating CHEAL ([8]; Rate 250 g ai/ha): 99; Post-emerge Herbicidal Activity, phytotoxicity rating SORHA ([9]; Rate 63 g ai/ha): 70; Post-emerge Herbicidal Activity, phytotoxicity rating SORHA ([9]; Rate 250 g ai/ha): 90; Post-emerge Herbicidal Activity, phytotoxicity rating CASOB ([10]; Rate 63 g ai/ha): 0; Post-emerge Herbicidal Activity, phytotoxicity rating CASOB ([10]; Rate 250 g ai/ha): 20; Pre-emerge herbicidal activity, phytotoxicity rating AMBEL ([11]; 63 g ai/ha): 0; Pre-emerge herbicidal activity, phytotoxicity rating AMBEL ([11]; 250 g ai/ha): 50; Pre-emerge herbicidal activity, phytotoxicity rating ECHCG ([12]; 63 g ai/ha): 0; Pre-emerge herbicidal activity, phytotoxicity rating ECHCG ([12]; 250 g ai/ha): 75; Pre-emerge herbicidal activity, phytotoxicity rating SETVI ([13]; 63 g ai/ha): 10; Pre-emerge herbicidal activity, phytotoxicity rating SETVI ([13]; 250 g ai/ha): 90; Pre-emerge herbicidal activity, phytotoxicity rating ABUTH ([14]; 63 g ai/ha): 100; Pre-emerge herbicidal activity, phytotoxicity rating ABUTH ([14]; 250 g ai/ha): 100; Pre-emerge herbicidal activity, phytotoxicity rating DIGSA ([15]; 63 g ai/ha): 90; Pre-emerge herbicidal activity, phytotoxicity rating DIGSA ([15]; 250 g ai/ha): 100; Pre-emerge herbicidal activity, phytotoxicity rating IPOHE ([16]; 63 g ai/ha): 0; Pre-emerge herbicidal activity, phytotoxicity rating IPOHE ([16]; 250 g ai/ha): 0; Pre-emerge herbicidal activity, phytotoxicity rating CHEAL ([17]; 63 g ai/ha): 40; Pre-emerge herbicidal activity, phytotoxicity rating CHEAL ([17]; 250 g ai/ha): 85; Pre-emerge herbicidal activity, phytotoxicity rating SORHA ([18]; 63 g ai/ha): 0; Pre-emerge herbicidal activity, phytotoxicity rating SORHA ([18]; 250 g ai/ha): 70; Pre-emerge herbicidal activity, phytotoxicity rating CASOB ([19]; 63 g ai/ha): 20; Pre-emerge herbicidal activity, phytotoxicity rating CASOB ([19]; 250 g ai/ha): 0; Pre-emerge phytotoxicity rating, crop damage CORN ([20]; 63 g ai/ha): 10; Pre-emerge phytotoxicity rating, crop damage CORN ([20]; 250 g ai/ha): 90; Pre-emerge phytotoxicity rating, crop damage RICE ([21]; 63 g ai/ha): 0; Pre-emerge phytotoxicity rating, crop damage RICE ([21]; 250 g ai/ha): 40; Post-emerge phytotoxicity rating CORN (crop damage) ([22]; Rate 63 g ai/ha): 95; Post-emerge phytotoxicity rating CORN (crop damage) ([22]; Rate 250 g ai/ha): 100; Post-emerge phytotoxicity rating RICE (crop damage) ([23]; Rate 63 g ai/ha): 10; Post-emerge phytotoxicity rating RICE (crop damage) ([23]; Rate 250 g ai/ha): 25; Pre-emerge herbicidal activity, phytotoxicity rating AMARE ([24]; 63 g ai/ha): 90; Pre-emerge herbicidal activity, phytotoxicity rating AMARE ([24]; 250 g ai/ha): 100
